Measured values: ChEMBL document CHEMBL1201862, “PubChem BioAssay data set” (2004)
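Test compounds were applied to cells in 96-well plates for 48 hours at 5 doses. Here, GI50 denotes the concentration required for 50% inhibition of growth.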 The source made the active and inactive calls. No stated cut-off is given here; in the data, active = GI50 up to about 1.1 µM and inactive = higher.

How the values were obtained:
Assay in all cases: DTP human tumour cell line panel, 48 h
786-0 = system: 786-0
A549 = system: A549
ACHN = system: ACHN
BT-549 = system: BT-549
CAKI-1 = system: CAKI-1
CCRF-CEM = system: CCRF-CEM
COLO 205 = system: COLO 205
DU-145 = system: DU-145
EKVX = system: EKVX
HCC 2998 = system: HCC 2998
HCT-116 = system: HCT-116
HCT-15 = system: HCT-15
HL-60 = system: HL-60
HOP-62 = system: HOP-62
HOP-92 = system: HOP-92
HT-29 = system: HT-29
Hs-578T = system: Hs-578T
IGROV-1 = system: IGROV-1
K562 = system: K562
KM12 = system: KM12
LOX IMVI = system: LOX IMVI
M14 = system: M14
MCF7 = system: MCF7
MDA-MB-231 = system: MDA-MB-231
MDA-MB-435 = system: MDA-MB-435
MDA-N = system: MDA-N
MOLT-4 = system: MOLT-4
Malme-3M = system: Malme-3M
NCI-H226 = system: NCI-H226
NCI-H23 = system: NCI-H23
NCI-H460 = system: NCI-H460
NCI-H522 = system: NCI-H522
NCI/ADR-RES = system: NCI/ADR-RES
OVCAR-3 = system: OVCAR-3
OVCAR-4 = system: OVCAR-4
OVCAR-5 = system: OVCAR-5
OVCAR-8 = system: OVCAR-8
PC-3 = system: PC-3
RPMI-8226 = system: RPMI-8226
SF-268 = system: SF-268
SF-295 = system: SF-295
SF-539 = system: SF-539
SK-MEL-28 = system: SK-MEL-28
SK-MEL-2 = system: SK-MEL-2
SK-OV-3 = system: SK-OV-3
SN12C = system: SN12C
SNB-19 = system: SNB-19
SNB-75 = system: SNB-75
SR = system: SR
SW-620 = system: SW-620
TK-10 = system: TK-10
U-251 = system: U-251
UACC-257 = system: UACC-257
UACC-62 = system: UACC-62
UO-31 = system: UO-31
A498 = system: A498
RXF 393 = system: RXF 393
SK-MEL-5 = system: SK-MEL-5
T47D = system: T47D

Cc1ccn2c(=O)cc(CN3CCOCC3)nc2c1
GI50 (786-0): > 100 µM (inactive)
GI50 (A549): > 100 µM (inactive)
GI50 (ACHN): > 100 µM (inactive)
GI50 (BT-549): > 100 µM (inactive)
GI50 (CAKI-1): > 100 µM (inactive)
GI50 (CCRF-CEM): > 100 µM (inactive)
GI50 (COLO 205): > 100 µM (inactive)
GI50 (DU-145): > 100 µM (inactive)
GI50 (EKVX): > 100 µM (inactive)
GI50 (HCC 2998): > 100 µM (inactive)
GI50 (HCT-116): > 100 µM (inactive)
GI50 (HCT-15): > 100 µM
GI50 (HL-60): > 100 µM (inactive)
GI50 (HOP-62): > 100 µM (inactive)
GI50 (HOP-92): > 100 µM (inactive)
GI50 (HT-29): > 100 µM (inactive)
GI50 (Hs-578T): > 100 µM (inactive)
GI50 (IGROV-1): > 100 µM (inactive)
GI50 (K562): > 100 µM (inactive)
GI50 (KM12): > 100 µM (inactive)
GI50 (LOX IMVI): > 100 µM (inactive)
GI50 (M14): > 100 µM (inactive)
GI50 (MCF7): > 100 µM (inactive)
GI50 (MDA-MB-231): > 100 µM (inactive)
GI50 (MDA-MB-435): > 100 µM (inactive)
GI50 (MDA-N): > 100 µM (inactive)
GI50 (MOLT-4): > 100 µM (inactive)
GI50 (Malme-3M): > 100 µM (inactive)
GI50 (NCI-H226): > 100 µM (inactive)
GI50 (NCI-H23): > 100 µM (inactive)
GI50 (NCI-H460): > 100 µM (inactive)
GI50 (NCI-H522): > 100 µM (inactive)
GI50 (NCI/ADR-RES): > 100 µM (inactive)
GI50 (OVCAR-3): > 100 µM (inactive)
GI50 (OVCAR-4): > 100 µM (inactive)
GI50 (OVCAR-5): > 100 µM (inactive)
GI50 (OVCAR-8): > 100 µM (inactive)
GI50 (PC-3): > 100 µM (inactive)
GI50 (RPMI-8226): > 100 µM (inactive)
GI50 (SF-268): > 100 µM (inactive)
GI50 (SF-295): > 100 µM (inactive)
GI50 (SF-539): > 100 µM (inactive)
GI50 (SK-MEL-28): > 100 µM (inactive)
GI50 (SK-MEL-2): > 100 µM (inactive)
GI50 (SK-OV-3): > 100 µM (inactive)
GI50 (SN12C): > 100 µM (inactive)
GI50 (SNB-19): > 100 µM (inactive)
GI50 (SNB-75): > 100 µM (inactive)
GI50 (SR): > 100 µM (inactive)
GI50 (SW-620): > 100 µM (inactive)
GI50 (TK-10): > 100 µM (inactive)
GI50 (U-251): > 100 µM (inactive)
GI50 (UACC-257): > 100 µM (inactive)
GI50 (UACC-62): 58.1 µM (inactive)
GI50 (UO-31): > 100 µM (inactive)

O=C1CN2Cc3cc(N4CCOCC4)ccc3N=C2N1
GI50 (A498): 91 µM (inactive)
GI50 (BT-549): > 100 µM (inactive)
GI50 (CAKI-1): 56.5 µM (inactive)
GI50 (CCRF-CEM): 5.43 µM (inactive)
GI50 (COLO 205): 32.1 µM (inactive)
GI50 (DU-145): 49.5 µM (inactive)
GI50 (HCT-116): 21.3 µM (inactive)
GI50 (HCT-15): 22.9 µM
GI50 (HL-60): 72.6 µM (inactive)
GI50 (HOP-62): 47.1 µM (inactive)
GI50 (HOP-92): > 100 µM (inactive)
GI50 (HT-29): 38 µM (inactive)
GI50 (Hs-578T): 23.8 µM (inactive)
GI50 (IGROV-1): 27.5 µM (inactive)
GI50 (K562): 2.91 µM (inactive)
GI50 (KM12): 43.3 µM (inactive)
GI50 (LOX IMVI): > 100 µM (inactive)
GI50 (M14): 33 µM (inactive)
GI50 (MCF7): 60.8 µM (inactive)
GI50 (MDA-MB-231): 88.1 µM (inactive)
GI50 (MDA-MB-435): 22.9 µM (inactive)
GI50 (MOLT-4): 25 µM (inactive)
GI50 (Malme-3M): 89.1 µM (inactive)
GI50 (NCI-H226): 44.6 µM (inactive)
GI50 (NCI-H23): 20.3 µM (inactive)
GI50 (NCI-H460): 41.5 µM (inactive)
GI50 (NCI/ADR-RES): 31.3 µM (inactive)
GI50 (OVCAR-3): 30.1 µM (inactive)
GI50 (OVCAR-4): 67.9 µM (inactive)
GI50 (OVCAR-5): 87.3 µM (inactive)
GI50 (OVCAR-8): 72.9 µM (inactive)
GI50 (PC-3): 31.4 µM (inactive)
GI50 (RPMI-8226): 67 µM (inactive)
GI50 (RXF 393): 73.3 µM (inactive)
GI50 (SF-295): 38.6 µM (inactive)
GI50 (SK-MEL-28): > 100 µM (inactive)
GI50 (SK-MEL-2): 42.7 µM (inactive)
GI50 (SK-MEL-5): 27.8 µM (inactive)
GI50 (SK-OV-3): 25.8 µM (inactive)
GI50 (SN12C): 63.5 µM (inactive)
GI50 (SNB-19): > 100 µM (inactive)
GI50 (SNB-75): 31.5 µM (inactive)
GI50 (SR): 66.1 µM (inactive)
GI50 (SW-620): 47.1 µM (inactive)
GI50 (T47D): > 100 µM (inactive)
GI50 (TK-10): > 100 µM (inactive)
GI50 (U-251): 39.4 µM (inactive)
GI50 (UACC-257): 89.1 µM (inactive)
GI50 (UACC-62): 26.2 µM (inactive)
GI50 (UO-31): 33.4 µM (inactive)

O=C1/C(=C/c2cccc(Cl)c2)CCCc2ccccc21
GI50 (786-0): 17.8 µM (inactive)
GI50 (A549): 26.5 µM (inactive)
GI50 (ACHN): 16.1 µM (inactive)
GI50 (BT-549): 19.7 µM (inactive)
GI50 (CAKI-1): 24.1 µM (inactive)
GI50 (CCRF-CEM): 10.2 µM (inactive)
GI50 (COLO 205): 20.5 µM (inactive)
GI50 (DU-145): 19.2 µM (inactive)
GI50 (EKVX): 16.7 µM (inactive)
GI50 (HCC 2998): 17.2 µM (inactive)
GI50 (HCT-116): 12.9 µM (inactive)
GI50 (HCT-15): 17.2 µM
GI50 (HL-60): 11.9 µM (inactive)
GI50 (HOP-62): 21.6 µM (inactive)
GI50 (HOP-92): 21.1 µM (inactive)
GI50 (HT-29): 15.8 µM (inactive)
GI50 (Hs-578T): 15.5 µM (inactive)
GI50 (IGROV-1): 15.4 µM (inactive)
GI50 (K562): 14.3 µM (inactive)
GI50 (KM12): 17.9 µM (inactive)
GI50 (LOX IMVI): 17.8 µM (inactive)
GI50 (M14): 16.3 µM (inactive)
GI50 (MCF7): 6.03 µM (inactive)
GI50 (MDA-MB-231): 18.2 µM (inactive)
GI50 (MDA-MB-435): 16.2 µM (inactive)
GI50 (MDA-N): 16.9 µM (inactive)
GI50 (MOLT-4): 15.2 µM (inactive)
GI50 (Malme-3M): 19.1 µM (inactive)
GI50 (NCI-H226): 16.1 µM (inactive)
GI50 (NCI-H23): 16.1 µM (inactive)
GI50 (NCI-H460): 15.7 µM (inactive)
GI50 (NCI-H522): 14.5 µM (inactive)
GI50 (NCI/ADR-RES): 18.4 µM (inactive)
GI50 (OVCAR-3): 23.7 µM (inactive)
GI50 (OVCAR-4): 15.8 µM (inactive)
GI50 (OVCAR-5): 16.5 µM (inactive)
GI50 (OVCAR-8): 18.3 µM (inactive)
GI50 (PC-3): 18.3 µM (inactive)
GI50 (RPMI-8226): 8.26 µM (inactive)
GI50 (SF-268): 16.8 µM (inactive)
GI50 (SF-295): 17.5 µM (inactive)
GI50 (SF-539): 17.9 µM (inactive)
GI50 (SK-MEL-28): 17.3 µM (inactive)
GI50 (SK-MEL-2): 17.4 µM (inactive)
GI50 (SK-OV-3): 45.8 µM (inactive)
GI50 (SN12C): 18.2 µM (inactive)
GI50 (SNB-19): 14.9 µM (inactive)
GI50 (SNB-75): 15.6 µM (inactive)
GI50 (SR): 11.6 µM (inactive)
GI50 (SW-620): 16.9 µM (inactive)
GI50 (TK-10): 18 µM (inactive)
GI50 (U-251): 15.8 µM (inactive)
GI50 (UACC-257): 19.1 µM (inactive)
GI50 (UACC-62): 13.7 µM (inactive)
GI50 (UO-31): 16.1 µM (inactive)
